System: BALB/cA Jcl-nu mice transplanted with human lung cancer cell line NCI-H441
Test: Toxicity alleviating effect against pemetrexed in tumor-bearing mouse
Settings: deaths/animals during the test, pemetrexed 50 mg/kg/day, Compound 1 600 mg/kg/day
Experimental: Cells of a human lung cancer cell line, NCI-H441, were suspended in a PBS containing 50% [sequence], and the suspension was transplanted subcutaneously into the right-side chest of each of 8-week old BALB/cA Jcl-nu mice (Crea-Japan, Inc.) in an amount of 5×10^6 cells/0.1 mL/body. At the time when the average tumor volume after grouping became more than 100 mm^3, the major axis and the minor axis of the tumor were measured, and grouping was performed such that there would be no fluctuations in the tumor volumes of the various groups (6 animals per group). Furthermore, the mice were maintained under conditions of low-folic acid feed breeding from the age of 5 weeks to the day of test completion.
Pemetrexed (manufactured by LC Laboratories, Inc.) was dissolved in physiological saline, and the solution was administered through the caudal vein on Day 1, which was the day after the day of grouping, and on Day 8, which was one week thereafter. Furthermore, Compound 1 was suspended in a 0.5% aqueous solution of hydroxypropylmethyl cellulose, and the suspension was orally administered once a day for 14 consecutive days from the day after the day of grouping. […]
After grouping, the body weights (BW) were measured twice a week, and the rate of bodyweight change (bodyweight change; BWC) was calculated by the following formula, the toxicity alleviating effect was evaluated. […]

Nc1nc2[nH]cc(CCc3ccc(C(=O)N[C@@H](CCC(=O)O)C(=O)O)cc3)c2c(=O)[nH]1 [Pemetrexed]
No. of Death: 1/6
No. of Death (listed as pemetrexed): one death case out of six animals

Source: US20180110780A1, “AGENT FOR ALLEVIATING SIDE EFFECT OF ANTITUMOR DRUG” (TAIHO PHARMACEUTICAL CO., LTD., priority 2015, published 2018)
